In article PMC12302426, “Dihydrokoumine, a dual-target analgesic with reduced side effects isolated from a traditional Chinese medicine” (Journal of Advanced Research, 2024):
Where two headings read alike, the source gives them in different places.

Experiments:
mu opioid receptor (MOR) = biological target: T1, mu opioid receptor (MOR) (Homo sapiens, UniProt P35372); test: FLIPR Ca2+ assay in HEK293T-Mu cells; assay type: cell-based
T1 construct: expressed in transfected cells; host or cells: HEK293T-Mu
Description: (§1) FLIPR assay was carried out as reported earlier. Cell lines were seeded in 96-well plates with black walls (Greiner, USA) at 8.0 × 10^4 cells per well. After approximately 22 h of incubation, the cells were exposed to Calcium-6 dye (Molecular Devices, USA) in HBSS buffer supplemented with 20 mM HEPES (pH 7.4) at 37°C for one hour. Samples, redissolved in DMSO and housed in 96-well drug plates, underwent dilution with FLIPR buffer and subsequent automated introduction to the cells. […] In FLIPR antagonist experiments, cells were pre-incubated with the compound for 10 min prior to introducing a specified concentration of agonist. Results were presented as fluorescence (arbitrary units) plotted against time.

M3R = biological target: T2, M3R (Homo sapiens, UniProt P20309); test: FLIPR Ca2+ antagonist assay in HEK293-M3 cells (carbachol-induced); assay type: cell-based
T2 construct: expressed in transfected cells; host or cells: HEK293 cell membranes
Description: as §1

Delta opioid receptor = biological target: T3, Delta opioid receptor (Homo sapiens, UniProt P41143); test: DMR agonist and desensitization assay in HEK293-Delta cells; assay type: cell-based
T3 construct: expressed in transfected cells; host or cells: HEK293-Delta
Description: (§2) DMR assays were performed using an Epic® BT system (Corning, NY, USA). All used cell lines were directly seeded in Epic 384-well biosensor microplates with a seeding density of 25,000 cells per well. After being cultured for about 22 h, the cells formed a monolayer with a confluency of about 95 % in the cell culture medium. Then the cells were manually washed using assay buffer (1 × HBSS buffer, 10 mM HEPES, pH = 7.4) and maintained in 30 μL of the assay buffer for 1 h. All samples were dissolved in DMSO and diluted freshly with the assay buffer containing 0.1 % BSA.
The DMR assays were conducted as follows. […] In the case of the DMR desensitization assay, cells were pretreated with analytes for one hour before introducing a specific agonist at the indicated concentration, and the agonist-induced DMR signals were monitored for one hour. Finally, for the DMR antagonist assay, cells underwent a 1-hour pretreatment with an antagonist before the addition of a specific agonist at the indicated concentration, and subsequent DMR signals were recorded over one hour.
(§3) The receptor selectivity was evaluated against a set of G protein-coupled receptors (GPCRs), including opioid receptor (Delta/Kappa/NOP), dopamine receptor (D1/D2), orphan receptor (GPR35), adrenergic receptor (α2A/β2), serotonin receptor (5HT2A), histamine receptor (H1) and cannabinoid receptor (CB1). Following a 1-hour pretreatment with DK, a 2-min baseline was established before introducing probes and monitoring DMR signals for another hour. The cells and probes were as follows: Delta, HEK293-Delta, SNC162; Kappa, HEK293-Kappa, ICI199441; NOP, HEK293-NOP, MCOPPB; D1, HEK293-D1, dopamine; D2, HEK293-D2, dopamine; GPR35, CHO-K1-hGPR35, zaprinast; 5HT2A, HEK293-5HT2A, 5-hydroxytryptamine; α2A, HEK293-α2A, L-Noradrenaline; β2, A431, isoprenaline; H1, A431, histamine; CB1, CHO-K1-CB1, CP 55940. The other detailed process was the same as above.

dopamine receptor D1 = biological target: T4, dopamine receptor D1 (Homo sapiens, UniProt P21728); test: DMR desensitization assay, HEK293-D1, probe dopamine; assay type: cell-based; conditions: 100 μM DK
T4 construct: expressed in transfected cells; host or cells: HEK293-D1
Description: as §2
as §3, with “The other detailed process was the same as above.” left out

adrenergic receptor α2A = biological target: T5, adrenergic receptor α2A (Homo sapiens, UniProt P08913); test: DMR desensitization assay, HEK293-α2A, probe L-Noradrenaline; assay type: cell-based; conditions: 100 μM DK
T5 construct: expressed in transfected cells; host or cells: HEK293-α2A
Description: as §2
as §3, with “The other detailed process was the same as above.” left out

C57BL/6 male mice = test: Formalin paw test; assay type: in vivo
Description: The formalin test in mice was conducted following established procedures. Six-week-old C57BL/6 male mice were used in […] (n = 6). Mice were individually acclimated in a 4-liter glass beaker for 30 min prior to the test. Solvent mixture, […], morphine (5 mg/kg), or DK (20, 40 mg/kg) were injected intraperitoneally (5 mL/kg) 15 min prior to formalin injection. Formalin solution (5 %, 25 μL) was injected into the dorsal surface of the right hind paw using a 50 μL Hamilton syringe with a 30-gauge needle. […] Evaluation of MOR agonistic activity of dihydrokoumine, naloxone (2 mg/kg) was first injected intraperitoneally, immediately followed by the injection of morphine (5 mg/kg) or DK (20 mg/kg).

HUVEC cells = test: Cytotoxicity assay (CCK-8), HUVEC; assay type: cell-based; conditions: 24 h
Description: HEK293T, CHO, and HUVEC cell lines were cultured overnight in 96-well plates before exposure to compounds for 24 h. Cell viability was evaluated using the Cell Counting Kit-8 (CCK-8, Beyotime Biotechnology, China), and absorbance at 450 nm was measured with a microplate reader. Cell survival rates were calculated relative to control conditions.

[1] = Pharmacokinetics, oral bioavailability; assay type: in vivo, SD male rats; conditions: rats, 20 mg/kg (method)
Description: Oral bioavailability evaluation was as follows. SD male rats (about 250 g) were used in bioavailability evaluation (n = 3). […] were given a single dose of DK (20 mg/kg, 5 mL/kg, […].) through intragastric administration or tail vein injection. Blood (300 μL) was collected at 0.083, 0.167, 0.25, 0.5, 1, 2, 4, 6, 8, and 10 h, into EDTA tubes. Plasma was obtained by mixing with acetonitrile and centrifugation (3000 r/min, 10 min).
Brain and plasma drug levels were measured by LC-30AD (Shimadzu Corporation Kyoto, Japan) and SCIEX QTRAP-6500 (AB Sciex, Foster City, CA, USA) and calculated by comparing with internal standard (koumine, 200 ng/mL). The used column was Waters ACQUITY UPLC BEH C18 (2.1*150 mm, 1.7 μm); the mobile phase was composed of (A) 0.1 % FA in water and (B) 0.1 % FA in ACN; the elution gradient was 20 % B (0–3 min), 20–40 % B (3–5 min), 40–95 % B (5–6 min); the flow rate was 0.3 mL/min; and detection was in the positive mode.

T3 sequence (P41143 whole entry): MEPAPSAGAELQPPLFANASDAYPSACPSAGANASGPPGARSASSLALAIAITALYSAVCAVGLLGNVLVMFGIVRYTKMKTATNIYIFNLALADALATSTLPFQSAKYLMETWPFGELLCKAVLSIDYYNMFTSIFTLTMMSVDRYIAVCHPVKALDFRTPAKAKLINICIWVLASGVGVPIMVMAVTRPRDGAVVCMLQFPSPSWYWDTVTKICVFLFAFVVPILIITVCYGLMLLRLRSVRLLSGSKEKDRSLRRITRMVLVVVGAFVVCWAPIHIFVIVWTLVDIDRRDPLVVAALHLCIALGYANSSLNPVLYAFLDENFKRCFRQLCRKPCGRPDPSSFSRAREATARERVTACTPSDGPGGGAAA
T1 sequence (P35372 whole entry): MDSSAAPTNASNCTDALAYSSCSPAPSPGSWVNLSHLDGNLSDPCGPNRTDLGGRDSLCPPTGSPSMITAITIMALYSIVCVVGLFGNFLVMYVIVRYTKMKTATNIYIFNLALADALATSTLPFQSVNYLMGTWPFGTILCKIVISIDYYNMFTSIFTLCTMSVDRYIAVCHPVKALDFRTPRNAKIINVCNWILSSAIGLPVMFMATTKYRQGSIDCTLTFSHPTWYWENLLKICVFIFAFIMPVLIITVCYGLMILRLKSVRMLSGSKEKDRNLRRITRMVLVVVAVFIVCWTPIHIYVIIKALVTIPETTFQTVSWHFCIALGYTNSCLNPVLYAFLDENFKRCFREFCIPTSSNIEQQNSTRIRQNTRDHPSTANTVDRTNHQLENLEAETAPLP
T2 sequence (P20309 whole entry): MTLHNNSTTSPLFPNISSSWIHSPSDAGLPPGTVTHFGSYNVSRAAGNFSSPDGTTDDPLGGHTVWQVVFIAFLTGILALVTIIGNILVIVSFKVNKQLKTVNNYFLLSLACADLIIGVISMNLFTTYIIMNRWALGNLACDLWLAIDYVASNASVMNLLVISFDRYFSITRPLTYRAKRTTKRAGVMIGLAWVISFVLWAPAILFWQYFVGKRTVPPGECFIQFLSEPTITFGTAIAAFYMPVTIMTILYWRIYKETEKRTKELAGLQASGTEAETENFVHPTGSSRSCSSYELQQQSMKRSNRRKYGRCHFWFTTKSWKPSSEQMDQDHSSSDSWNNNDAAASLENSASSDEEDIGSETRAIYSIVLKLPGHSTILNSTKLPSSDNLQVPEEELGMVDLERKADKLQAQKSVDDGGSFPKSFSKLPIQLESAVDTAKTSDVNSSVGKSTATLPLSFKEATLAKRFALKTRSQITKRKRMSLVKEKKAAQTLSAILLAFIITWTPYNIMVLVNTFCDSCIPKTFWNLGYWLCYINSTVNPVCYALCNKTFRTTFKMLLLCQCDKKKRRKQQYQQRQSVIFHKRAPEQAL
T5 sequence (P08913 whole entry): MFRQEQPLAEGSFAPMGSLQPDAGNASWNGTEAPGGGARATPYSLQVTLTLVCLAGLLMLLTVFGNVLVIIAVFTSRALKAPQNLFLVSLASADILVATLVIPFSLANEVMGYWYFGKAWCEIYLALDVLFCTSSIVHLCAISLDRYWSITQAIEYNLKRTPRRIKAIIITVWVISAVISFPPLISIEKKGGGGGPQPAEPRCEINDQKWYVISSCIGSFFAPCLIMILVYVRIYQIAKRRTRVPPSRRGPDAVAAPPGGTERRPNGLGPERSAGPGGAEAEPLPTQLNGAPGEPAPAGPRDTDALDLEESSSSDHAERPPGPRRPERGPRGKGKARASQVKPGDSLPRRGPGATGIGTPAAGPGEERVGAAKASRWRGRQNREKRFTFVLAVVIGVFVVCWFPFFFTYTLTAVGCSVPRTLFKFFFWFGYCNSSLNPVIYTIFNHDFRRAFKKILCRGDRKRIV
T4 sequence (P21728 whole entry): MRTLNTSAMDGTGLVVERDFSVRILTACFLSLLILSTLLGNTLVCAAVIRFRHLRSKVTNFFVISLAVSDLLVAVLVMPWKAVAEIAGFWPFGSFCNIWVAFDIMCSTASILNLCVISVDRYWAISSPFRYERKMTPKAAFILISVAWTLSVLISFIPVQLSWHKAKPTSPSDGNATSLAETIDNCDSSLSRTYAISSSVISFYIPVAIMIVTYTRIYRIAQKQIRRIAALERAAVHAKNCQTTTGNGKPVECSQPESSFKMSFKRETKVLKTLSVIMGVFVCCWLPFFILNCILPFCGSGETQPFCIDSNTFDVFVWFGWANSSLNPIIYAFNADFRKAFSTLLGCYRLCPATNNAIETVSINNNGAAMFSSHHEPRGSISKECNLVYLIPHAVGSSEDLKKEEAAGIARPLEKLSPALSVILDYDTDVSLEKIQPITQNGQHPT

C=CC12CN(C)C3CC14c1ccccc1NC4C1CC2C3CO1 (stereo not shown) [DK]
Ca2+ response after naloxone pretreatment (mu opioid receptor (MOR); 100 μM DK): significantly decreased by naloxone
maximum Ca2+ response compared with endomorphin-1 (mu opioid receptor (MOR); FLIPR): less than half of the maximum Ca^2+ response of endomorphin-1
IC50 (M3R; FLIPR, 5 nM carbachol (Fig. 2D), read-out: IC50 for inhibition of carbachol-induced Ca2+ response): 11.6 ± 4.31 µM
concentration-dependent inhibition of carbachol-induced Ca2+ response at M3R compared with purified DK (M3R; semisynthesized material): its activity was close to that of purified DK
DMR agonist response (Delta opioid receptor; HEK293-Delta cells): unable to trigger a concentration-dependent DMR response
probe-induced DMR response after DK pretreatment (Delta opioid receptor; HEK293-Delta, 2.5 μM SNC162, pretreatment one hour): had little effect on the DMR response produced by the respective probes
antagonist effect at high concentration (decrease of probe DMR response) (Delta opioid receptor; HEK293-Delta, SNC162, high-concentration of DK): very weak antagonist effects
reduction of probe DMR response (desensitization) (dopamine receptor D1): almost unable to reduce the response
reduction of probe DMR response (desensitization) (adrenergic receptor α2A): almost unable to reduce the response
effect of naloxone on antinociception in formalin test (C57BL/6 male mice; DK 20 mg/kg, naloxone 2 mg/kg): Naloxone antagonized the antinociception of DK
licking time in Phase I and Phase II (C57BL/6 male mice; DK 20, 40 mg/kg i.p., formalin 5 %): remarkable decrease in the licking time in Phase I at both doses and in Phase II at high doses
cytotoxicity (cell viability) (HUVEC cells): noncytotoxic
AUC ([1]; male, SD (Sprague-Dawley), rat, iv, plasma, i.v., read-out: (AUC)0-12 h, intravenous injection): 902 ng·h/mL
bioavailability ([1]; male, SD (Sprague-Dawley), rat, plasma, oral, i.g. vs i.v.): 42.6%
AUC ([1]; male, SD (Sprague-Dawley), rat, po, plasma, i.g., read-out: (AUC)0-12 h, intragastric administration): 384 ng·h/mL
time of highest plasma concentration ([1]; intragastric (i.g.) administration): 15 min
